Data from US7736636B2, “Method for treating occlusive vascular diseases & wound healing” (priority 2004, dated 2010).
“Also recorded” adds a separate entry of the source. Read-outs that look alike come from different tables or passages of the source.

Key:
[1] = system: normal human dermal fibroblast cells (NHDF); settings: in vitro wound healing
Description: Additionally, a 3-dimensional wound healing method already established in our Laboratory will be utilized in this study (see below).
In Vitro 3D Wound Healing Assay of Human Dermal Fibroblast Cells:
Step 1: Prepare Contracted Collagen Gels: • 1) Coat 24-well plate with 350 ul 2% BSA at RT for 2 hr, • 2) 80% confluent NHDF (normal human dermal fibroblast cells, Passage 5-9) are trypsinized and neutralized with growth medium, centrifuge and wash once with PBS • 3) Prepare collagen-cell mixture, mix gently and always on ice:
• 4) Aspire 2% BSA from 24 well plate, add collagen-cell mixture 350 ul/well, and incubate the plate in 37° C. CO2 incubator. • 5) After 1 hr, add DMEM+5% FBS medium 0.5 ml/well, use a 10 ul tip Detach the collagen gel from the edge of each well, then incubate for 2 days. The fibroblast cells will contract the collagen gel
Step 2: Prepare 3D Fibrin Wound Clot and Embed Wounded Collagen Culture • 1) Prepare fibrinogen solution (1 mg/ml) with or without testing regents. 350 ul fibrinogen solution for each well in eppendorf tube.
• 2) Cut each contracted collagen gel from middle with scissors. Wash the gel with PBS and transfer the gel to the center of each well of 24 well plate • 3) Add 1.5 ul of human thrombin (0.25 U/ul) to each tube, mix well and then add the solution around the collagen gel, the solution will polymerize in 10 mins. […]

[2] = system: CAM of 10-day-old chick embryos; test: Chorioallantoic membrane (CAM) model of angiogenesis, Table 1; type: in vivo; settings: for Mean Number of Branch Points ± SD: n = 8, control 76 ± 10
Description: (§1) Chorioallantoic membrane (CAM) Model of Angiogenesis: In vivo Neovascularization was examined by methods described previously. 9-12 Ten-day-old chick embryos were purchased from SPAFAS (Preston, Conn.) and incubated at 37° C. with 55% relative humidity. A hypodermic needle was used to make a small hole in the shell concealing the air sac, and a second hole was made on the broad side of the egg, directly over an avascular portion of the embryonic membrane that was identified by candling. A false air sac was created beneath the second hole by the application of negative pressure at the first hole, causing the CAM to separate from the shell. A window approximately 1.0 cm 2 was cut in the shell over the dropped CAM with a small-crafts grinding wheel (Dremel, division of Emerson Electric Co.), allowing direct access to the underlying CAM. FGF2 (1 μg/mL) was used as a standard proangiogenic agent to induce new blood vessel branches on the CAM of 10-day-old embryos. Sterile disks of No. 1 filter paper (Whatman International) were pretreated with 3 mg/mL cortisone acetate. Nicotine, nicotinic acid analogs, FGF2 or control solvents, and inhibitors were then applied to the disks and the disks allowed to dry. The disks were then suspended in PBS and placed on growing CAMs. Filters treated were placed on the first day of the 3-day incubation, with antibody to FGF2 added 30 minutes later to selected samples as indicated. At 24 hours, the MAPK cascade inhibitor PD 98059 was also added to CAMs topically by means of the filter disks.
(§2) Microscopic Analysis of CAM Sections: After incubation at 37° C. with 55% relative humidity for 3 days, the CAM tissue directly beneath each filter disk was resected from control and treated CAM samples. Tissues were washed 3× with PBS, placed in 35-mm Petri dishes (Nalge Nunc), and examined under an SV6 stereomicroscope (Zeiss) at ×50 magnification. Digital images of CAM sections exposed to filters were collected using a 3-charge-coupled device color video camera system (Toshiba) and analyzed with Image-Pro software (Media Cybernetics). The number of vessel branch points contained in a circular region equal to the area of each filter disk were counted. One image was counted in each CAM preparation, and findings from 8 to 10 CAM preparations were analyzed for each treatment condition (Nicotine, nicotinic acid analogs). The resulting angiogenesis index is the mean±SEM of new branch points in each set.

[3] = system: CAM of 10-day-old chick embryos; test: Nicotine, nicotinic acid and FGF2 alone and combined, branch points (Table 2, titled Release of FGF2 From Endothelial Cells); type: in vivo; settings: for Average number of branch Points ± SD: n = 16, control 86 ± 14
Description: as §1
as §2, with “One image was counted in each CAM preparation, and findings from 8 to 10 CAM preparations were analyzed for each treatment condition (Nicotine, nicotinic acid analogs).” left out

Compound | Stimulation of wound healing (in words) [1] | New blood vessel generation / branch formation in the CAM model (in words) [2] | Mean Number of Branch Points ± SD ([2]; 0.1 μg) | Average number of branch Points ± SD ([3]; 0.05 ug) | Average number of branch Points ± SD ([3]; 0.1 ug) | Pro-angiogenesis effect compared with FGF2 (in words) ([3]; Table 2) | Mean Number of Branch Points ± SD ([2]; 1.0 μg) | New blood vessel generation / branch formation in the CAM model (in words) ([2]; listed as nicotinic acid) | Average number of branch Points ± SD ([3]; 0.5 ug) | Average number of branch Points ± SD ([3]; 1.0 ug)
CN1CCCC1c1cccnc1 (stereo not drawn) [Nicotine] | potent stimulation of wound healing | promoted new blood vessel generation; also recorded: promotes new blood vessel branch formation | 192 ± 11 | 145 ± 10 | 192 ± 11 | comparable pro-angiogenesis effect to that shown with FGF2 |  |  |  | 
O=C(O)c1cccnc1 [Nicotinic acid] |  | promoted new blood vessel generation |  |  |  |  | 155 ± 16 | promotes new blood vessel branch formation |  | 
FGF2: basic fibroblast growth factor, used as a standard proangiogenic agent |  |  |  |  |  |  | 195 ± 22 |  | 115 ± 08 | 195 ± 22
